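Test compounds were applied to cells in 96-well plates for 48 hours at 5 doses. Abbreviation: GI50, concentration required for 50% inhibition of growth. TGI: concentration producing complete growth inhibition.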
Key:
Experiment in all cases: DTP human tumour cell line panel, 48 h
CAKI-1 renal = tested on: CAKI-1 renal
SK-MEL-2 melanoma = tested on: SK-MEL-2 melanoma
SF-268 CNS = tested on: SF-268 CNS
EKVX NSCLC = tested on: EKVX NSCLC
SF-539 CNS = tested on: SF-539 CNS
K-562 leukemia = tested on: K-562 leukemia
NCI-H460 lung = tested on: NCI-H460 lung
TK-10 renal = tested on: TK-10 renal
COLO 205 colon = tested on: COLO 205 colon
HOP-92 NSCLC = tested on: HOP-92 NSCLC

Row | Structure (SMILES) | GI50 (CAKI-1 renal) [µM] | TGI (CAKI-1 renal) [µM] | GI50 (SK-MEL-2 melanoma) [µM] | TGI (SK-MEL-2 melanoma) [µM] | GI50 (SF-268 CNS) [µM] | TGI (SF-268 CNS) [µM] | GI50 (EKVX NSCLC) [µM] | TGI (EKVX NSCLC) [µM] | GI50 (SF-539 CNS) [µM] | TGI (SF-539 CNS) [µM] | GI50 (K-562 leukemia) [µM] | TGI (K-562 leukemia) [µM] | GI50 (NCI-H460 lung) [µM] | TGI (NCI-H460 lung) [µM] | GI50 (TK-10 renal) [µM] | TGI (TK-10 renal) [µM] | GI50 (COLO 205 colon) [µM] | TGI (COLO 205 colon) [µM] | GI50 (HOP-92 NSCLC) [µM] | TGI (HOP-92 NSCLC) [µM]
1 | CC(=O)[CH-]C(=O)c1ccccc1.CC(=O)[CH-]C(=O)c1ccccc1.O=S(=O)([O-])c1cc([O-])c2c([O-])cc(S(=O)(=O)[O-])cc2c1.[Na+].[Ti+4] | > 100 | > 100 | > 100 | > 100 | > 100 | > 100 | > 100 | > 100 | 83.3 | > 100 | > 100 | > 100 | > 100 | > 100 | – | – | – | – | – | –
2 | Cc1sc2c(c1C)C(c1ccc(Cl)cc1)=N[C@@H](CC(=O)Nc1ccc(OCCOCCOCCOCCNc3cccc4c3C(=O)N(C3CCC(=O)NC3=O)C4=O)cc1)c1nnc(C)n1-2 (some centres not stated) | – | – | 0.347 | > 100 | 0.254 | > 100 | 0.409 | > 100 | 0.242 | > 100 | 0.293 | > 100 | 2.13 | > 100 | 0.189 | > 43.7 | < 0.0279 | > 82.4 | < 0.0125 | > 51.8
3 | COC(=O)C(=O)CC(=O)c1cccc(OC)c1 | – | > 100 | – | – | – | > 100 | – | > 100 | – | > 100 | – | > 100 | – | > 100 | – | > 100 | – | > 100 | – | –
4 | NC(N)=N/N=C(\N=Nc1ccccc1)c1ccc(Cl)cc1 | 1.42 | 3.29 | 3.79 | 13.1 | 3.53 | 15.7 | 2.55 | 13.5 | 2.98 | 8.1 | 1.2 | 6.37 | 3.13 | 16.5 | 3.18 | 12 | 2.46 | 5.36 | – | –
5 | C=C1C(=O)OC2C1CC(OC(C)=O)/C(C)=C/CCC1(C)OC21 (configuration not stated) | – | > 100 | – | > 100 | – | > 100 | – | > 100 | – | > 100 | – | > 100 | – | > 100 | – | – | – | > 100 | – | > 100
6 | NCCCOc1cc2ccccc2cc1C(=O)NCCCOc1cc2ccccc2cc1C(=O)Nc1ccc(Cl)cc1O | 0.829 | 2.42 | 1.21 | 2.91 | 0.904 | 3.17 | 0.74 | 2.43 | 1.05 | 2.57 | 0.262 | 1.02 | 0.202 | 0.387 | 0.583 | 1.26 | 1.7 | 3.34 | – | –
7 | CNCCn1c(=O)c2cc(OC)c(OC)cc2c2cnc3cc4c(cc3c21)OCO4 | < 0.01 | 0.128 | 2.32 | 4.91 | < 0.01 | 1.78 | – | – | < 0.01 | 0.0103 | 0.0252 | 2.2 | < 0.01 | 0.217 | 0.0465 | 2.16 | 0.0304 | 2.06 | < 0.0149 | 0.518
8 | CCc1nc(Cl)c(Cl)c(Cl)n1 | – | – | – | > 100 | – | > 100 | – | > 100 | – | > 100 | – | > 100 | – | > 100 | – | > 100 | – | – | – | –
9 | O=C(Nc1ccc(Cl)cc1)Nc1nccs1 | 2.36 | 54.8 | 0.784 | 43.3 | 8.53 | 63.1 | – | – | 1.81 | 6.42 | 0.5 | > 100 | 0.487 | 57.3 | 10.2 | 93.1 | 0.75 | 6.13 | 2.14 | 34
10 | CCC[CH2][Sn]1([CH2]CCC)[O]CC(COc2c(Cl)cc(Cl)cc2Cl)[O]1 (configuration not stated) | 0.511 | 1.65 | 0.58 | 1.91 | 1.15 | 2.68 | 5.51 | 17.3 | 1.64 | 3.43 | – | – | 2.67 | 7.98 | – | – | 1.39 | 2.75 | 1.55 | 3.06
11 | O=C(NNc1cnccn1)c1nc2cc(F)ccc2n2cccc12 | 0.422 | > 100 | 1.61 | > 100 | 0.551 | > 100 | 0.387 | > 100 | 0.847 | > 31.6 | 0.387 | > 100 | 0.403 | > 100 | 0.647 | > 100 | 0.331 | > 100 | – | –
12 | COc1cc(OC)c2sc(-c3ccc(-n4cncc4-c4cc(OC)c(OC)c(OC)c4)cc3)nc2c1 | – | – | 6.09 | > 100 | – | – | 5.09 | > 100 | 8.59 | > 100 | 3.83 | > 100 | 4.67 | > 100 | 9.4 | > 100 | 4.51 | > 100 | – | –
13 | O=C1C=CC(=CC=C2C=CN(CCCCCCCCCCC(=O)NCCCCCCCCCCCC(=O)O)C=C2)C=C1 | – | > 100 | – | – | – | > 100 | – | > 100 | – | > 100 | – | > 100 | – | > 100 | – | > 100 | – | > 100 | – | > 100
14 | Cc1cc(NCCCCNc2ccnc3cc(Cl)ccc23)nc(Nc2ccc(C(=O)N3CCCCC3)cc2)n1 | 1.75 | 3.47 | 2.05 | 3.9 | 1.77 | 3.64 | 2.97 | 10.8 | – | – | – | – | 1.78 | 3.78 | 2.11 | 4.13 | 1.76 | 3.51 | 1.21 | 3.03
15 | NC(CCc1ncc(C(=O)O)s1)C(=O)O (configuration not stated) | – | > 100 | – | – | – | – | – | > 100 | – | > 100 | – | > 100 | – | > 100 | – | > 100 | – | > 100 | – | > 100
16 | Oc1ccc(Oc2cnc3ccccc3n2)cc1 | 29.5 | 81.1 | > 100 | > 100 | 50.3 | > 100 | 67 | > 100 | 77.2 | > 100 | > 100 | > 100 | > 100 | > 100 | > 100 | > 100 | > 100 | > 100 | – | –
